# What was measured:
# Assay type in all cases: functional, organism-based
# SARS-CoV-2 [1] = test: Antiviral activity against SARS-CoV-2 variant Omicron BA.2 infected in African green monkey Vero E6 cells assessed as reduction in virus-induced cytopathic effect; conditions: Severe acute respiratory syndrome coronavirus 2, Omicron BA.2, Vero C1008
# SARS-CoV-2 [2] = test: Antiviral activity against SARS-CoV-2 Omicron BA1 variant infected in human A549-ACE2 cells assessed as reduction in viral load measured upto 4 days by viral plaque assay; conditions: Severe acute respiratory syndrome coronavirus 2, A549-ACE2, 96 h
# SARS-CoV-2 [3] = test: Antiviral activity against SARS-CoV-2 Omicron BA1 variant infected human A549-ACE2 cells assessed as inhibition of viral replication; conditions: Severe acute respiratory syndrome coronavirus 2, Omicron BA1, A549-ACE2
Compound,EC50 (SARS-CoV-2 [1]),also measured
C[C@H](OC(C)(C)C)[C@H](NC(=O)OCc1ccccc1)C(=O)N[C@@H](CC1CCCCC1)C(=O)N[C@H](C=O)C[C@@H]1CCNC1=O,0.0217 µM,–
CC(C)C[C@H](NC(=O)OCc1ccccc1)C(=O)N[C@@H](C[C@@H]1CCNC1=O)C(O)S(=O)(=O)O (some centres undefined),0.0217 µM,–
N#Cc1ccccc1-c1cc(-c2cc(Cl)cc(OCC3CC3)c2)c(=O)n(-c2cccnc2)c1,0.0171 µM,–
CC(C)(C)OC(=O)Nc1cccn([C@@H](CC2CC2)C(=O)N[C@@H](C[C@@H]2CCNC2=O)C(=O)C(=O)NCc2ccccc2)c1=O,0.0171 µM,–
C[C@H](NC(=O)[C@@H](c1cccnc1)N(C(=O)C(Cl)Cl)c1ccc(-c2ccccc2)cc1)c1ccccc1,0.0217 µM,–
CC(C)C[C@H](NC(=O)c1cc2c(F)cccc2[nH]1)C(=O)NN(C[C@@H]1CCNC1=O)C(=O)[C@@H](F)Cl,0.0171 µM,–
COc1cccc2[nH]c(C(=O)N[C@@H](CC(C)C)C(=O)N[C@@H](C[C@@H]3CCCNC3=O)C(=O)COC(=O)c3c(C(F)(F)F)cccc3C(F)(F)F)cc12,0.0217 µM,–
C[C@H](NC(=O)[C@@H](c1cccnc1)N(C(=O)c1ccco1)c1ccc(-c2ccccc2)cc1)c1ccccc1,0.0217 µM,–
CSc1ccc2c(c1)NC(=O)C(F)(F)C2=O,0.0171 µM,–
O=C1N(c2cncc3ccccc23)CNC12CC(c1ccccc1Cl)C2 (centres undefined),0.0171 µM,–
CC(C)C[C@H](NC(=O)OCC1C[C@H]2CCC[C@@H](C1)C2)C(=O)N[C@H](C=O)C[C@@H]1CCNC1=O (some centres undefined),0.0217 µM,–
COc1ccc2cc1Oc1ccc(cc1)C[C@H]1c3c(cc4c(c3Oc3cc5c(cc3OC)CCN(C)[C@@H]5C2)OCO4)CCN1C [CEPHARANTHINE],–,EC50 (SARS-CoV-2 [2]): 0.1 µM
Br.[2H]c1cc([C@]2(C#N)O[C@H](COC(=O)C(C)C)[C@@H](OC(=O)C(C)C)[C@H]2OC(=O)C(C)C)n2ncnc(N)c12 [DEUREMIDEVIR HYDROBROMIDE],–,EC50 (SARS-CoV-2 [3]): 0.3 µM
COc1cccc2[nH]c(C(=O)N[C@@H](CC(C)C)C(=O)N[C@@H](C[C@@H]3CCNC3=O)C(=O)CO)cc12 [PF-00835231],0.0217 µM,–

# Source: ChEMBL document CHEMBL5335778, “Bench-to-bedside: Innovation of small molecule anti-SARS-CoV-2 drugs in China” (Eur J Med Chem, 2023)
